This note sets out measurements from article PMC10947015, “Constraining and Modifying Peptides Using Pd‐Mediated Cysteine Allylation” (Chembiochem, 2023).

For this assay, the target named is T1, integrin α3β1 (Homo sapiens, UniProt P05556+P26006).
T1 construct: integrin α3β1 expressed on human MDA‐MB231 cells; endogenous in cells; host or cells: MDA-MB231 (human)
In words: Binding of stapled peptides to integrin α3β1 on MDA-MB231 cells, flow cytometry with streptavidin-PerCP-Cy5.5 staining. As for the experimental part:
The obtained stapled peptides P1 a–g were tested for binding to integrin α3β1 expressed on human MDA‐MB231 cells (Figure S2). Upon incubation for 30 min with different concentrations of the stapled P1 a–g variants, streptavidin‐PerCP‐Cy5.5 was added after three washing steps to allow detection by flow cytometry. Peptide P2 (P1 in its disulfide cyclized form) served as a positive control, which bound with an apparent affinity of 100 nM.[23]
Binding of stapled peptides to murine 4T1 cells and human MDA-MB231 cells
Figure S2: Determination of Kd values for peptides P1a-h based on streptavidin-PerCP-Cy5.5 staining of integrin- containing cells incubated with different peptide concentrations. A: Peptides P1a-c in mouse 4T1 cells. B: P1a-c in human MDA-MB231 cells. C: Peptides P1d-h in human MDA-MB231 cells.
4T1 and MDA-MB231 cells were grown in culture according to the suppliers’ guidelines, and cells were detached by using trypsin/EDTA (PAN, diluted 1:2 with PBS). Resuspended cells in complete culture medium were centrifuged and washed once with washing buffer [HEPES (pH 7.3, 10 mM) in NaCl (0.9 %)] at 4°C and resuspended (2x10^6 cells mL-1) in peptide blocking buffer (PBB): HEPES (pH 7.3, 10 mM) in NaCl (0.9%) + KCl (5 mM), BSA (3%) + FCS (5 %) + MnCl2 (4 mM). Peptide samples were prepared at twice the final concentration in PBB and added to the cells to give final peptide concentrations of 1 nM - 3 µM. Cells (1x105 per 50 µL) were aliquoted into FACS tubes and incubated for 10 min on ice before addition of the peptide samples (50 µL). […]
PerCP-Cy5.5 (100 µL, Beckton Dickinson, 0.5 mg mL-1) in PBB. […] Cells were kept on ice until analysis with a FACS Canto instrument and 10000 events/sample were recorded. Data were evaluated with Flowing software. Gating was performed on single and live cells, and histograms of PerCP–Cy5.5 fluorescence were plotted. Kd values were calculated by fitting the data to a one-site specific binding model [Y=BmaxVX/(Kd+X)] by using GraphPad Prism, and errors represent the standard error of the fit.

Where [1] appears, read: Figure 2, integrin α3β1, flow cytometry binding, read-out: Kd.

Where two headings read alike, the source gives them in different places. Starred links: 1 amine or outer side, 2 acyl side, 3 side chain; linkers in the order of their positions; H or OH if unused. Positions of bridges follow the written chain, without caps; N, C: chain ends. Non-standard residues stand in square brackets, D forms with d. Residues, ends and D or L forms follow the SMILES beside them. Groups on a side chain read outwards from the residue. *: point of attachment. X1 = O=C(CCCC[C@@H]1SC[C@@H]2NC(=O)N[C@@H]21)NCCCOCCOCCOCCCN*; Tyr(3-NO2) = N[C@@H](Cc1ccc(O)c([N+](=O)[O-])c1)C(=O)O; Glutaryl = O=C(CCCC(=O)[*:2])[*:1]; Hyp = O=C(O)[C@@H]1C[C@@H](O)CN1; X2 = C(=C/C[*:2])/C[*:1]; X3 = C(#CC[*:2])C[*:1]

T1 sequence (P26006 33-872 limits assumed): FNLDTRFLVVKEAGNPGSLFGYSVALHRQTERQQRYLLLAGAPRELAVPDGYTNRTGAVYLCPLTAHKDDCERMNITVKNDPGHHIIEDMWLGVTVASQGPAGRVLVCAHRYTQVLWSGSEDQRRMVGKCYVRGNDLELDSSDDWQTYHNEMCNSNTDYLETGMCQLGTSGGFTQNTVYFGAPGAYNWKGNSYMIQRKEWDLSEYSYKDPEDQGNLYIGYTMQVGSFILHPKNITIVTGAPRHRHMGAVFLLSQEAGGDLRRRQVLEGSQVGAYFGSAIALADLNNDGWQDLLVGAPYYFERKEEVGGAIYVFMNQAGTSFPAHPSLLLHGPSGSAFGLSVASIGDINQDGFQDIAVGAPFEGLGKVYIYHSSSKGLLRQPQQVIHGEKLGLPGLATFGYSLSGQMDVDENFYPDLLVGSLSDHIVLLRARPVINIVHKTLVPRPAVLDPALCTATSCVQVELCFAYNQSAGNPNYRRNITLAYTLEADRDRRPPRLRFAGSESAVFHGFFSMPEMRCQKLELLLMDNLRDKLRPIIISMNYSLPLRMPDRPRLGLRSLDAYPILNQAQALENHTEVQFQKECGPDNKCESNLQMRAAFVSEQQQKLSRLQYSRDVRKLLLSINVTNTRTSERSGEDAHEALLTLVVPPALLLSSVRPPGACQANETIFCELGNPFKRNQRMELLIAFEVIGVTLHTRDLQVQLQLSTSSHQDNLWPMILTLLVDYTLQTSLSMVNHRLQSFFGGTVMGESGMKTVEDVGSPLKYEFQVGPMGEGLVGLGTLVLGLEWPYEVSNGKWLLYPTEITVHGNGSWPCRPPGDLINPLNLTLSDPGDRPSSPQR
T1 sequence (P26006 878-1051 limits assumed): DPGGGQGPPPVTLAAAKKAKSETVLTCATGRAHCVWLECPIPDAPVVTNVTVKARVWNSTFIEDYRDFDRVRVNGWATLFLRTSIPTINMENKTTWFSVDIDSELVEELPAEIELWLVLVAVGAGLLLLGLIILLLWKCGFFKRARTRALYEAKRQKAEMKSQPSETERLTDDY
T1 sequence (P05556 21-798): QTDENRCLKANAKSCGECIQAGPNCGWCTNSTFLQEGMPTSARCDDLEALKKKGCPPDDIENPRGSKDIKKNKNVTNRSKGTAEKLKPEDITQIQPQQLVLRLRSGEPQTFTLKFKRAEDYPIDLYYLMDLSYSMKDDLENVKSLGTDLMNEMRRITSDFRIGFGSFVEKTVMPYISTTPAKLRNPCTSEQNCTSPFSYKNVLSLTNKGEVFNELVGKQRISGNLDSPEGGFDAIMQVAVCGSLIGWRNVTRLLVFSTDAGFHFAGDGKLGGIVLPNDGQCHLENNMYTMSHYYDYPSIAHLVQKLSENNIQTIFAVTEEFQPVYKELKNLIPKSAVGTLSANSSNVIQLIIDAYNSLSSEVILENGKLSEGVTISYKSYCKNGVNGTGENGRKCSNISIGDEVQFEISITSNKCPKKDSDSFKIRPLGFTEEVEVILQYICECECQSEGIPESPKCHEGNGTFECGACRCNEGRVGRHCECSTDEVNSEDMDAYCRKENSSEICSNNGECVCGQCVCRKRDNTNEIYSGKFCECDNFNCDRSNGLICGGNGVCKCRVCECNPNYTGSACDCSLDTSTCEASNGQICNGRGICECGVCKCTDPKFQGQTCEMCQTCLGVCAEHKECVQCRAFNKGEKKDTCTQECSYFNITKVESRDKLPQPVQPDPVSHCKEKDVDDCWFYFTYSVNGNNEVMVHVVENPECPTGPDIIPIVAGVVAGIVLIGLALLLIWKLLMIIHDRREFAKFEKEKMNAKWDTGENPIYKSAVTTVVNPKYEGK

Regarding `NC(=O)C[C@@H]1NC(=O)[C@@H]2C[C@@H](O)CN2C(=O)CNC(=O)[C@H](Cc2ccc(O)c([N+](=O)[O-])c2)NC(=O)CNC(=O)[C@@H](CC(=O)O)NC(=O)[C@H](N)CSCC#CCSC[C@H](C(=O)NCC(=O)NCC(=O)N[C@@H](CCCCNC(=O)CCCC(=O)NCCCOCCOCCOCCCNC(=O)CCCC[C@@H]2SC[C@@H]3NC(=O)N[C@@H]32)C(N)=O)NC1=O` [P1 d] (H-[dC][dD]G[Tyr(3-NO2)]G[Hyp]N[dC]GGK([Glutaryl-X1])-NH2; linker 1-8 via X3), the Kd (integrin α3β1 expressed on human MDA-MB231 cells, 30 min incubation on ice, streptavidin-PerCP-Cy5.5, flow cytometry, one-site specific binding fit, read-out: binding affinity) was approximately 10 µM.

As for `NC(=O)C[C@@H]1NC(=O)[C@@H]2C[C@@H](O)CN2C(=O)CNC(=O)[C@H](Cc2ccc(O)c([N+](=O)[O-])c2)NC(=O)CNC(=O)[C@@H](CC(=O)O)NC(=O)[C@H](N)CSC/C=C\CSC[C@H](C(=O)NCC(=O)NCC(=O)N[C@@H](CCCCNC(=O)CCCC(=O)NCCCOCCOCCOCCCNC(=O)CCCC[C@@H]2SC[C@@H]3NC(=O)N[C@@H]32)C(N)=O)NC1=O` [P1 a] (H-[dC][dD]G[Tyr(3-NO2)]G[Hyp]N[dC]GGK([Glutaryl-X1])-NH2; linker 1-8 via X2), the Kd under setting [1] came out at 13 µM.

Take `NC(=O)C[C@@H]1NC(=O)[C@@H]2C[C@@H](O)CN2C(=O)CNC(=O)[C@H](Cc2ccc(O)c([N+](=O)[O-])c2)NC(=O)CNC(=O)[C@@H](CC(=O)O)NC(=O)[C@H](N)CSSC[C@H](C(=O)NCC(=O)NCC(=O)N[C@@H](CCCCNC(=O)CCCC(=O)NCCCOCCOCCOCCCNC(=O)CCCC[C@@H]2SC[C@@H]3NC(=O)N[C@@H]32)C(N)=O)NC1=O` [Peptide P2, reference compound] (H-[dC][dD]G[Tyr(3-NO2)]G[Hyp]N[dC]GGK([Glutaryl-X1])-NH2; disulfide 1-8): the Kd under setting [1] came to 0.1 µM.
